# Assay results from EP0385952A2, “Use of a naphthalenmethanamino derivative as antiinflammatory agent and pharmaceutical compositions containing it” (SANDOZ AG, priority 1989, dated 1990).
# Where two headings read alike, the source gives them in different places. Marks after values point to notes of the source that are not given here.
# Legend:
# [1] = system: OF₁-mouse resident peritoneal macrophages; assay: Zymosan-induced release of TXB₂, PGE₂ and LTC₄; type: cell-based; settings: Peritoneal macrophage, 2 hours
# Procedure: The test compound is added in various concentrations to monolayers of OF₁-mouse resident peritoneal macrophages isolated as described in J. Schnyder and M. Baggiolini, J. Exp. Med. 148 (1978) 435-450. 0.5 ml of the suspension containing 1.2 x 10⁶ cells/ml DMEM (Dulbecco's modified Eagles medium, non-essential amino acids, 2 mM L-glutamine, 100 U/ml penicillin/streptomycin) containing 2 % heat-inactivated fetal calf serum and 20 U heparin/ml is added to each well of 24-well plates (diameter 1.6 cm) and allowed to adhere at 37°C for 2 hours in 5 % CO₂/air. The monolayers are then washed with PBS and 0.5 ml DMEM containing 1 % heat-inactivated fetal calf serum added. Various concentrations of the test substance in the same medium (containing a maximum final concentration of 1 % DMSO) are added, the final volume being 0.98 ml, and after 10 minutes at 37°C, the cells are stimulated by addition of 20 µl of a 1-20 v/v dilution of zymosan particles (Sigma Chemie, Deisenhofen, FRG) in 50 mg/ml PBS. After 2 hours at 37° C, the media are removed, centrifuged at 1300 g for 5 minutes and decanted. The cells are lysed with 1ml 0.01 % digitonin. The supernatants are then analysed by radioimmunoassay procedures for thromboxane B₂, prostaglandin E₂ and leukotriene C₄. Lactate dehydrogenase activities in the medium and cell lysates are also measured as an indication of cell toxicity.
# HACAT cell line = assay: Modulation of keratinocyte gene expression and NAP1/IL-8 protein release; type: cell-based, human; settings: for inhibition at 10 µM: Homo sapiens, HaCaT, ELISA
# Procedure: The HACAT cell line is grown in 200 ml culture flasks in KGM medium (Clonetics) at 0.06 mM Ca until 50 % confluency. Thereafter cells are starved in KBM medium (Clonetics) for 2 days. The resulting preconfluent cells are then stimulated with αTNF (Genzyme, 500 or 1000 U/ml) or IL-1α (Boehringer, 200 U/ml) obtained from stock solutions and further diluted in KBM medium for the indicated times in the presence of test substance. At the end of the incubation period total cellular RNA is extracted as described above under 1.1.5. 20 µg RNA is run on 1 % formaldehyde agarose gels and transferred onto hybond N filters (Amersham) in a northern capillary transfer using 20xSSC. The filters are then baked for 2 hours and prehybridized for 4 hours. Hybridization (16 hours) and washing are performed at 65°C using oligonucleotide probes for NAP1/IL-8. For control, blots are rehybridised with an actin probe (Oncor). Concentrations of NAP1/IL-8 in the supernatants of the keratinocyte cultures are determined using a solid phase double ligand ELISA.
# human neutrophils = assay: Zymosan-stimulated superoxide release; type: cell-based; settings: Neutrophil, read-out: IC₅₀ for zymosan-stimulated superoxide release
# bovine platelets = assay: Thrombin-stimulated release from platelets; type: cell-based; settings: Bos taurus, Platelet
# guinea pigs = assay: UV-erythema model (2.2.); type: in vivo; settings: therapeutic, test concentration 5.0 %, topical, erythema score
# Procedure: Female guinea pigs weighing 250-300 g are used. On the day before experiment they are shorn on both flanks followed by a final dry shaving without skin irritation two hours before UV exposure. Two circular areas (10 mm diameter) on each flank are exposed 10 seconds to ultraviolet rays from […] at an intensity of 16 mW/cm² (UVA) and 500 mW/cm² (UVB). Drugs are administered topically immediately after exposure to UV light in a volume of 50 µl of 25 % ethanol and 75 %polyethylenglycol-400 to the irradiated skin areas on the right flank. Two areas on the left flank serve as vehicle control. Erythema is assessed visually 3.5 and 5.5 hours after irradiation and results expressed in scores. Changes in erythema intensity after drug administration are expressed as percentages of the scored erythema intensity in vehicle-treated areas.
# NMRI mice = assay: Allergic contact dermatitis to oxazolone (2.3.); type: in vivo; settings: therapeutic, test concentration 3.6 %, topical twice, pinnal weight after 24 hours, 0̸ = no activity
# Procedure: Skin irritation with arachidonic acid or cantharidin is often used to experimentally induce inflammation in order to evaluate the anti-inflammatory activity of a compound [see e.g. Inflammation 8 (1984) 134-135; 10 (1986) 205-214]. NMRI mice (8 animals per group) receive 10 µl of a 10 % solution of arachidonic acid [J.M. Young et al., J. Invest. Derm. 82 (1986) 367-371] in acetone or, respectively, 0.08 % cantharidin [K.E. Swingle et al., Arch. Int. Pharmacodyn. Ther. 254 (1981) 168-176] in acetone applied to the medial and lateral surface of the right external ear. […] The animals are killed 1.5 hours (arachidonic acid) or, respectively, 17 hours (cantharidin) after application of the irritant and efficacy in assessed by determination of the differences in auricular weight. […] Efficacy (%) is calculated according to the equation: [formula]
# The inhibition of allergic contact dermatitis to oxazolone in mice is determined. […] 24 hours after skin testing treatment-related inhibition of contact dermatitis is assessed by pinnal weight as described above (see 2.1.1.). […]
# Solubility in water = type: physicochemical; settings: at 25°C
compound,measurement,setting,value
"CN(C/C=C/c1ccc(O)cc1)Cc1cccc2ccccc12 [compound of the invention, (E)-N-methyl-N-[3-(4-hydroxyphenyl)-2-propenyl]-1-naphthalene-methanamine]",IC50,[1]; read-out: IC₅₀ for LTC₄,8 µM
same,IC50,[1]; read-out: IC₅₀ for PGE₂,1.5 µM
same,IC50,[1]; read-out: IC₅₀ for TXB₂,6 µM
same,inhibition at 10 µM,HACAT cell line; read-out: inhibition of IL-1α-stimulated release of NAP1/IL-8,40%
same,inhibition at 10 µM,HACAT cell line; read-out: inhibition of αTNF-stimulated release of NAP1/IL-8,90%
same,αTNF-induced NAP1/IL-8 mRNA accumulation decreased to,"HACAT cell line; remaining level, 20.0 µM",60%
same,IC50,human neutrophils,> 100 µM
same,IC50,bovine platelets; read-out: IC₅₀ for thrombin-stimulated release of N-glucosaminidase,> 100 µM
same,IC50,bovine platelets; read-out: IC₅₀ for thrombin-stimulated release of serotonin,> 100 µM
same,Efficacy (%),guinea pigs,27%
same,Efficacy (%),NMRI mice,42** %
same,solubility,Solubility in water,< 100 µg/mL
